Patent publication US10420341B2, “Herbicidal phenylpyrimidines” (BASF SE, priority 2015, dated 2019)

Columns and labels:
[1] = test system: ALOMY; experiment: greenhouse post-emergence herbicidal test; format: in vivo, Alopercurus myosuroides; settings: post-emergence method, scale from 0 to 100
Outline: (§1)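 Post-emergence; plants at 3–15 cm, treated with aqueous suspension/emulsion of compound. 10–25 °C or 20–35 °C per species, 2–4 wk. Score 0 (no damage) to 100 (aerial parts destroyed).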

[2] = test system: AMARE; experiment: greenhouse post-emergence herbicidal test; format: in vivo, Amaranthus retroflexus; settings: post-emergence method, scale from 0 to 100
Outline: as §1

[3] = test system: SETVI; experiment: greenhouse post-emergence herbicidal test; format: in vivo, Setaria viridis; settings: post-emergence method, scale from 0 to 100
Source text: (§2) The seeds of the test plants were sown separately for each species. For the post-emergence treatment, the test plants were first grown to a height of 3 to 15 cm, depending on the plant habit, and only then treated with the active ingredients which had been suspended or emulsified in water. For this purpose, the test plants were either sown directly and grown in the same containers, or they were first grown separately as seedlings and transplanted into the test containers a few days prior to treatment. Depending on the species, the plants were kept at 10-25° C. or 20-35° C., respectively. The test period extended over 2 to 4 weeks. During this time, the plants were tended, and their response to the individual treatments was evaluated. Evaluation was carried out using a scale from 0 to 100. 100 means no emergence of the plants, or complete destruction of at least the aerial moieties, and 0 means no damage, or normal course of growth. […] The plants used in the greenhouse experiments were of the following species: [table]

[4] = test system: ECHCG; experiment: greenhouse post-emergence herbicidal test; format: in vivo, Echinocloa crus-galli; settings: post-emergence method, scale from 0 to 100
Outline: as §1

[5] = test system: APESV; experiment: greenhouse pre-emergence herbicidal test; format: in vivo, Apera spica-venti; settings: pre-emergence method, scale from 0 to 100
Outline: (§3)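 Species-dependent temperatures of 10-25° C. or 20-35° C. were maintained for a 2 to 4 week test after pre-emergence nozzle application of compounds dispersed in water. Efficacy was scored 0-100, with 100 denoting no emergence or total aerial destruction.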

[6] = test system: ECHCG; experiment: greenhouse pre-emergence herbicidal test; format: in vivo, Echinocloa crus-galli; settings: pre-emergence method, scale from 0 to 100
Outline: as §3

[7] = test system: POLCO; experiment: greenhouse post-emergence herbicidal test; format: in vivo, Polygonum convolvulus; settings: post-emergence method, application rate 500 g/ha, scale from 0 to 100
Outline: as §1

[8] = test system: ALOMY; experiment: greenhouse pre-emergence herbicidal test; format: in vivo, Alopercurus myosuroides; settings: pre-emergence method, application rate 500 g/ha, scale from 0 to 100
Source text: The seeds of the test plants were sown separately for each species. For the pre-emergence treatment, the active ingredients, which had been suspended or emulsified in water, were applied directly after sowing by means of finely distributing nozzles. The containers were irrigated gently to promote germination and growth and subsequently covered with transparent plastic hoods until the plants had rooted. This cover caused uniform germination of the test plants, unless this had been impaired by the active ingredients. Depending on the species, the plants were kept at 10-25° C. or 20-35° C., respectively. The test period extended over 2 to 4 weeks. During this time, the plants were tended, and their response to the individual treatments was evaluated. Evaluation was carried out using a scale from 0 to 100. 100 means no emergence of the plants, or complete destruction of at least the aerial moieties, and 0 means no damage, or normal course of growth. […] The plants used in the greenhouse experiments were of the following species: [table]

[9] = test system: AVEFA; experiment: greenhouse post-emergence herbicidal test; format: in vivo, Avena fatua; settings: post-emergence method, scale from 0 to 100
Outline: as §1

[10] = test system: ABUTH; experiment: greenhouse post-emergence herbicidal test; format: in vivo, Abutilon theophrasti; settings: post-emergence method, application rate 500 g/ha, scale from 0 to 100
Source text: as §2

## CCOC(=O)c1nc(OC)ncc1-c1cc(C)c(F)cc1C [example 64]
[1]; application rate 1000 g/ha
  herbicidal activity against ALOMY: very good (a very good herbicidal activity is given at values of at least 85)
[2]; application rate 1000 g/ha
  herbicidal activity against AMARE: very good (a very good herbicidal activity is given at values of at least 85)
[3]; application rate 1000 g/ha
  herbicidal activity against SETVI: very good (a very good herbicidal activity is given at values of at least 85)

## CSc1ncc(-c2ccc(C#N)cc2C)c(C(=O)O)n1 [example 96]
[2]; application rate 2000 g/ha
  herbicidal activity against AMARE: very good (a very good herbicidal activity is given at values of at least 85)
[3]; application rate 2000 g/ha
  herbicidal activity against SETVI: very good (a very good herbicidal activity is given at values of at least 85)

## CSc1ncc(-c2ccc(C(F)(F)F)cc2C)c(C(=O)O)n1 [example 99]
[2]; application rate 2000 g/ha
  herbicidal activity against AMARE: very good (a very good herbicidal activity is given at values of at least 85)
[4]; application rate 2000 g/ha
  herbicidal activity against ECHCG: good (A good herbicidal activity is given at values of at least 70)
[3]; application rate 2000 g/ha
  herbicidal activity against SETVI: very good (a very good herbicidal activity is given at values of at least 85)

## COc1ccc(-c2cnc(SC)nc2C(=O)O)c(OC)c1 [example 109]
[3]; application rate 2000 g/ha
  herbicidal activity against SETVI: good (A good herbicidal activity is given at values of at least 70)

## Cc1cc(F)c(-c2cnc(C3CC3)nc2C(=O)O)cc1Cl [example 137]
[2]; application rate 1000 g/ha
  herbicidal activity against AMARE: very good (a very good herbicidal activity is given at values of at least 85)
[3]; application rate 1000 g/ha
  herbicidal activity against SETVI: very good (a very good herbicidal activity is given at values of at least 85)

## Cc1ccc(Cl)c(-c2cnc(C3CC3)nc2C(=O)O)c1 [example 144]
[5]; application rate 500 g/ha
  herbicidal activity against APESV: very good (a very good herbicidal activity is given at values of at least 85)
[6]; application rate 500 g/ha
  herbicidal activity against ECHCG: very good (a very good herbicidal activity is given at values of at least 85)
[7]
  herbicidal activity against POLCO: very good (a very good herbicidal activity is given at values of at least 85)
[3]; application rate 500 g/ha
  herbicidal activity against SETVI: very good (a very good herbicidal activity is given at values of at least 85)

## O=C(O)c1nc(C2CC2)ncc1-c1c(Cl)cc(F)cc1Cl [example 147]
[8]
  herbicidal activity against ALOMY: very good (a very good herbicidal activity is given at values of at least 85)
[5]; application rate 500 g/ha
  herbicidal activity against APESV: very good (a very good herbicidal activity is given at values of at least 85)
[1]; application rate 500 g/ha
  herbicidal activity against ALOMY: very good (a very good herbicidal activity is given at values of at least 85)
[7]
  herbicidal activity against POLCO: very good (a very good herbicidal activity is given at values of at least 85)

## Cc1ccc(F)cc1-c1cnc(C2CC2)nc1C(=O)O [example 163]
[5]; application rate 1000 g/ha
  herbicidal activity against APESV: very good (a very good herbicidal activity is given at values of at least 85)
[6]; application rate 1000 g/ha
  herbicidal activity against ECHCG: very good (a very good herbicidal activity is given at values of at least 85)
[4]; application rate 1000 g/ha
  herbicidal activity against ECHCG: very good (a very good herbicidal activity is given at values of at least 85)
[3]; application rate 1000 g/ha
  herbicidal activity against SETVI: very good (a very good herbicidal activity is given at values of at least 85)

## O=C(O)c1nc(C2CC2)ncc1-c1ccccc1C(F)(F)F [example 176]
[8]
  herbicidal activity against ALOMY: very good (a very good herbicidal activity is given at values of at least 85)
[5]; application rate 500 g/ha
  herbicidal activity against APESV: very good (a very good herbicidal activity is given at values of at least 85)
[9]; application rate 500 g/ha
  herbicidal activity against AVEFA: very good (a very good herbicidal activity is given at values of at least 85)
[7]
  herbicidal activity against POLCO: very good (a very good herbicidal activity is given at values of at least 85)

## COC(=O)c1nc(C2CC2)ncc1-c1c(Br)ccc(C)c1F [example 198]
[5]; application rate 500 g/ha
  herbicidal activity against APESV: very good (a very good herbicidal activity is given at values of at least 85)
[6]; application rate 500 g/ha
  herbicidal activity against ECHCG: very good (a very good herbicidal activity is given at values of at least 85)
[10]
  herbicidal activity against ABUTH: very good (a very good herbicidal activity is given at values of at least 85)
[3]; application rate 500 g/ha
  herbicidal activity against SETVI: very good (a very good herbicidal activity is given at values of at least 85)

## COC(=O)c1nc(C2CC2)ncc1-c1ccccc1Cl [example 201]
[8]
  herbicidal activity against ALOMY: very good (a very good herbicidal activity is given at values of at least 85)
[5]; application rate 500 g/ha
  herbicidal activity against APESV: very good (a very good herbicidal activity is given at values of at least 85)
[6]; application rate 500 g/ha
  herbicidal activity against ECHCG: very good (a very good herbicidal activity is given at values of at least 85)
[1]; application rate 500 g/ha
  herbicidal activity against ALOMY: very good (a very good herbicidal activity is given at values of at least 85)
[7]
  herbicidal activity against POLCO: very good (a very good herbicidal activity is given at values of at least 85)

## COC(=O)c1nc(C2CC2)ncc1-c1cc(OC)ccc1Cl [example 206]
[5]; application rate 500 g/ha
  herbicidal activity against APESV: very good (a very good herbicidal activity is given at values of at least 85)
[6]; application rate 500 g/ha
  herbicidal activity against ECHCG: very good (a very good herbicidal activity is given at values of at least 85)
[4]; application rate 500 g/ha
  herbicidal activity against ECHCG: good (A good herbicidal activity is given at values of at least 70)
[3]; application rate 500 g/ha
  herbicidal activity against SETVI: good (A good herbicidal activity is given at values of at least 70)

## COC(=O)c1nc(C2CC2)ncc1-c1ccccc1[N+](=O)[O-] [example 223]
[5]; application rate 1000 g/ha
  herbicidal activity against APESV: very good (a very good herbicidal activity is given at values of at least 85)
[6]; application rate 1000 g/ha
  herbicidal activity against ECHCG: very good (a very good herbicidal activity is given at values of at least 85)
[4]; application rate 1000 g/ha
  herbicidal activity against ECHCG: very good (a very good herbicidal activity is given at values of at least 85)
[3]; application rate 1000 g/ha
  herbicidal activity against SETVI: very good (a very good herbicidal activity is given at values of at least 85)

## COC(=O)c1nc(C2CC2)ncc1-c1cc(F)ccc1C [example 226]
[8]
  herbicidal activity against ALOMY: very good (a very good herbicidal activity is given at values of at least 85)
[5]; application rate 500 g/ha
  herbicidal activity against APESV: good (A good herbicidal activity is given at values of at least 70)
[6]; application rate 500 g/ha
  herbicidal activity against ECHCG: very good (a very good herbicidal activity is given at values of at least 85)
[1]; application rate 500 g/ha
  herbicidal activity against ALOMY: very good (a very good herbicidal activity is given at values of at least 85)
[7]
  herbicidal activity against POLCO: very good (a very good herbicidal activity is given at values of at least 85)

## CCOC(=O)c1nc(C2CC2)ncc1-c1ccccc1Cl [example 251]
[8]
  herbicidal activity against ALOMY: very good (a very good herbicidal activity is given at values of at least 85)
[5]; application rate 500 g/ha
  herbicidal activity against APESV: very good (a very good herbicidal activity is given at values of at least 85)
[10]
  herbicidal activity against ABUTH: very good (a very good herbicidal activity is given at values of at least 85)
[2]; application rate 500 g/ha
  herbicidal activity against AMARE: very good (a very good herbicidal activity is given at values of at least 85)

## COC(=O)C(C)(C)SC(=O)c1nc(C2CC2)ncc1-c1ccccc1Cl [example 283]
[8]
  herbicidal activity against ALOMY: very good (a very good herbicidal activity is given at values of at least 85)
[5]; application rate 500 g/ha
  herbicidal activity against APESV: very good (a very good herbicidal activity is given at values of at least 85)
[9]; application rate 500 g/ha
  herbicidal activity against AVEFA: very good (a very good herbicidal activity is given at values of at least 85)
[7]
  herbicidal activity against POLCO: very good (a very good herbicidal activity is given at values of at least 85)

## CNC(=O)c1nc(C2CC2)ncc1-c1ccccc1Cl [example 289]
[5]; application rate 1000 g/ha
  herbicidal activity against APESV: very good (a very good herbicidal activity is given at values of at least 85)
[6]; application rate 1000 g/ha
  herbicidal activity against ECHCG: good (A good herbicidal activity is given at values of at least 70)
[3]; application rate 1000 g/ha
  herbicidal activity against SETVI: good (A good herbicidal activity is given at values of at least 70)

## O=C(O)c1nc(C2CC2)ncc1-c1c(F)cccc1I [example 317]
[5]; application rate 1000 g/ha
  herbicidal activity against APESV: very good (a very good herbicidal activity is given at values of at least 85)
[6]; application rate 1000 g/ha
  herbicidal activity against ECHCG: very good (a very good herbicidal activity is given at values of at least 85)
[1]; application rate 1000 g/ha
  herbicidal activity against ALOMY: very good (a very good herbicidal activity is given at values of at least 85)
[9]; application rate 1000 g/ha
  herbicidal activity against AVEFA: very good (a very good herbicidal activity is given at values of at least 85)
[3]; application rate 1000 g/ha
  herbicidal activity against SETVI: very good (a very good herbicidal activity is given at values of at least 85)
